Source: US20080312333A1, “Agent for Preventing/Ameliorating Life Style-Related Diseases Containing Turmeric Essential Oil Component” (Kaneka Corporation, priority 2004, published 2008)

Target: T1, PPARγ (Homo sapiens, UniProt P37231)
T1 construct: GAL4 (yeast transcription factor, amino acids 1-147); expressed in transfected cells; host or cells: CV-1 cells (African green monkey kidney)
T1 sequence (P37231 204-505): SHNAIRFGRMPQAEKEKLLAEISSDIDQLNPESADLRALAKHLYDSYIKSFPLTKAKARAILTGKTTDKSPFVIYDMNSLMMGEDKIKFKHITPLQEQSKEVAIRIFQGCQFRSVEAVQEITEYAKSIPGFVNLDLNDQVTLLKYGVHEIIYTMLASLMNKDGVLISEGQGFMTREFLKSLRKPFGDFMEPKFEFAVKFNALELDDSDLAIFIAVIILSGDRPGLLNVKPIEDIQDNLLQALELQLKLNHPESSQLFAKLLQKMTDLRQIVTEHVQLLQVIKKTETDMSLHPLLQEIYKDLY
Experiment: PPARγ ligand activity, GAL4-PPARγ ligand binding site luciferase reporter in CV-1 cells
Type: cell-based
Conditions: for PPARγ ligand activity: ratio to no treatment control (1.00), mean ± standard error, n = 3
Method: CV-1 cells (male African green monkey kidney-derived cultured cells) were seeded onto a 96-well culture plate (6×10^3 cells/well) and cultured under conditions of 37° C. and 5% CO2 for 24 hours. The medium used was DMEM (Dulbecco's modified Eagle medium; GIBCO) supplemented with 10% FBS (fetal bovine serum), 10 ml/L of a solution of penicillin and streptomycin (5,000 IU/ml and 5,000 μg/ml, respectively; GIBCO) and 37 mg/L of ascorbic acid (Wako Pure Chemical Industries, Ltd.). […] Each sample was dissolved in dimethyl sulfoxide (DMSO) and the solution, or DMSO used in a no treatment control group, was added to the medium to each concentration given in Table 4. Cells were washed with phosphate-buffered saline (PBS+) containing Ca and Mg, then luclite (PerkinElmer), a luciferase chemiluminescence reagent, was added, and the luciferase-due chemiluminescence intensity was measured using a TopCount microplate scintillation/luminescence counter (PerkinElmer).

PPARγ ligand activity (addition level 2 μg/ml): 1.51 ± 0.14
PPARγ ligand activity (addition level 5 μg/ml): 2.33 ± 0.59
PPARγ ligand activity (in words) (summary of Table 4): found to have PPARγ ligand activity
Compound: CC(C)=CC(=O)C[C@H](C)c1ccc(C)cc1 [ar-turmerone]
